This is an account of results in BindingDB's records for doi:10.1016/S0960-894X(00)80339-X (1993).

What is called IC50 is the concentration needed to halve the response being measured.

Where only a bound is given, the exact number is not on record here.

The experiment concerns the target Squalene monooxygenase (Sus scrofa). In words: Inhibitory concentration at which 50% decrease in the activity of Squalene epoxidase in pig liver microsomes.

In turn, `CC(C)=CCC/C(C)=C/CC/C(C)=C/CC/C=C(\C)CC/C=C(\C)CCCN(C)O` [N-Methyl-N-((4E,12E,16E,20E)-4,8,13,17,21-pentamethyl-docosa-4,8,12,16,20-pentaenyl)-hydroxylamine] yielded an IC50 of 13 µM.

In the case of `CC(C)=CCC/C(C)=C/CC/C(C)=C/CC/C=C(\C)CC/C=C(\C)CC/C=C/[N+](=O)[O-]` [(1E,5E,9E,13E,17E)-5,9,14,18,22-Pentamethyl-1-nitro-tricosa-1,5,9,13,17,21-hexaene], the IC50 was above 400 µM.
